Patent publication US20250051283A1, “THERAPEUTIC COMPOUNDS AND METHODS” (priority 2023, published 2025)
Where two headings read alike, the source gives them in different places.

Legend:
[1] = target: T1, EV-D68 2A^pro (WT-2A^pro, strain US/KY/14-18953, expressed in E. coli BL21(DE3) from pE-SUMOstar vector) (enterovirus D68, UniProt A0A097BW19); test: FRET-based enzymatic assay of EV-D68 2A^pro inhibition (FRET substrate Dabcyl-KIRIVNT/GPGFGGE-Edans); type: biochemical
T1 construct: E. coli-codon-optimised gene, pE-SUMOstar, His-SUMO tag (removed with SUMO protease for nontagged form), E. coli BL21(DE3), Ni-NTA; 7JRE is the C107A mutant
Experimental: (§1) FIG. 4. […] Key structural variations compared to telaprevir were highlighted in red. Enzymatic inhibitory activity IC50 value was determined in the FRET-based assay. Antiviral EC50 value was determined in the CPE assay with EV-D68 US/MO/14-18947 in R.D. cells. Cytotoxicity CC50 value was determined using the neutral red uptake method in R.D. cells. The results are the mean±standard deviation of two independent experiments with three repeats in each experiment.
as §1, with “5.” for “4.”, “Jun8861” for “telaprevir”
Protein expression and purification. EV-D68 2A^pro gene from strain US/KY/14-18953 was ordered from Genscript (Piscataway, NJ) in pET28b(+) vector with E. coli codon optimization. 2A^pro gene was subcloned into pE-SUMOstar vector according to the manufacturers protocol. Plasmid encoding WT-2A^pro was transformed into BL21(DE3) competent E. coli cells, and a single colony was picked and used to inoculate 10 mL of L.B. grown supplemented with 50 μg/mL kanamycin at 37° C. at 250 rpm. The 10 mL inoculant was added to 1 L of L.B. with 50 μg/mL kanamycin and grown to an OD600 of 0.8-1.0, cooled to 18° C., then induced using 0.5 mM IPTG. Induced cultures were incubated at 18° C. for an additional 24 h, then harvested and resuspended in lysis buffer (25 mM Tris (pH 7.5); 750 mM NaCl, 2 mM DTT with 0.5 mg/mL lysozyme, 0.5 mM PMSF and 0.02 mg/mL DNase I) and lysed with alternating sonication and French press cycles. The cell debris were removed by centrifugation at 12,000×g for 45 min […]. The supernatant was incubated with Ni-NTA resin for over 2 h at 4° C. on a rotator. The Ni-NTA resin was thoroughly washed with 50 mM imidazole in wash buffer (50 mM Tris (pH 7.5), 150 mM NaCl, and 2 mM DTT); for the SUMO-tagged protein, the protein was directly eluted with 300 mM imidazole; for the nontagged 2A^pro Ni-NTA resin was treated with SUMO Protease 1 to remove the SUMO tag, then 2A^pro was washed off from the column with 10 mM imidazole in wash buffer. The imidazole was removed via dialysis or 10 K molecular weight cut-off centrifugal concentrator spin column. The purity of the protein was confirmed with SDS-PAGE. The protein concentration was determined by classic BCA assay using bovine serum albumin as a standard. EV-D68 3C^pro in pET28b(+) vector was expressed as previously described^10.
Peptide synthesis. The FRET substrate of EV-D68 2A^pro, Dabcyl-KIRIVNT/GPGFGGE-Edans, was synthesized using the Fmoc solid phase synthesis strategy.
Enzymatic assays. The reaction buffer contains 50 mM Tris (pH7.0), 150 mM NaCl, 10% Glycerol, and 2 mM DTT, and the reaction was carried out at 30° C. in Cytation 5 imaging reader (Fisher Scientific) with EX360/40-EM460/40 filter. Reactions were monitored every 90 sec. […] The reaction was initiated by adding 20 μM of FRET substrate, and the reaction was monitored for 2 hours and initial velocity was calculated for the first 30 minutes via linear regression.

EV-D68 US/MO/14-18947 = test: CPE assay (neutral red) with EV-D68 US/MO/14-18947 in R.D. cells; type: cell-based, Enterovirus D68
Experimental: Cell lines and viruses. Human rhabdomyosarcoma (R.D., ATCC, CCL-136) cells were maintained at 37° C. in a 5% CO2 atmosphere and cultured in Dulbecco's modified Eagle's medium (DMEM) supplemented with 10% fetal bovine serum (FBS) and 1% penicillin-streptomycin antibiotics. The following reagents were obtained through BEI Resources, NIAID, NIH: Human Enterovirus D68, US/MO/14-18949, NR-49130; Enterovirus D68, US/MO/14-18947, NR-49129; Enterovirus D68, US/IL/14-18952, NR-49131; Enterovirus D68, US/KY/14-18953, NR-49132; Enterovirus D68, US/IL/14-18956, NR-49133.
Antiviral assays. Cells for antiviral assays were seeded and grown overnight at 37° C. in a 5% CO2 atmosphere for ˜90% confluency the next day. For all infections, cells were washed with PBS containing magnesium and calcium and infected with virus diluted in DMEM with 2% FBS and 30 mM MgCl2. Viruses were incubated for at least 1 h at 33° C. in a 5% CO2 atmosphere, followed by the addition of compound as well as 1% penicillin-streptomycin. For CC50 measurements, the experiment was performed similarly but excluded viral infection. For cytopathic effect (CPE) assays, cells were stained with 66 µg/mL neutral red for 2 h and neutral red uptake was measured at absorbance 540 nm using a Multiskan FC Microplate Photometer (ThermoFisher Scientific). The EC50 and CC50 values were calculated from best-fit dose response curves using GraphPad Prism. For plaque reduction assays, an 1.2% avicel microcrystalline cellulose (FMC BioPolymer, Philadelphia, PA) overlay was used and cells were stained after 3 days as previously described^26.

[2] = CPE assay, EV-D68 US/MO/14-18947 in R.D. cells, read-out: Antiviral EC50

SMILES	IC50 [1] [nM]	also measured
CC(C)(C)[C@H](NC(=O)CC12CC3CC(CC(C3)C1)C2)C(=O)N1C[C@@H]2CCC[C@@H]2[C@H]1C(=O)N[C@H](C(=O)C(=O)NC1CC1)c1ccccc1 [Jun11817, (1S,3aR,6aS)-2-((S)-2-(2-((3S,5S,7S)-adamantan-1-yl)acetamido)-3,3-dimethylbutanoyl)-N—((S)-3-(cyclopropylamino)-2,3-dioxo-1-phenylpropyl)octahydrocyclopenta[c]pyrrole-1-carboxamide]	230 ± 80	
CC(C)(C)C(NC(=O)CC12CC3CC(CC(C3)C1)C2)C(=O)N1CC2CCCC2C1C(=O)NC(C(=O)C(N)=O)C1CCCCC1 [Jun11725, (1S,3aR,6aS)-2-((S)-2-(2-((3S,5S,7S)-adamantan-1-yl)acetamido)-3,3-dimethylbutanoyl)-N—((S)-3-amino-1-cyclohexyl-2,3-dioxopropyl)octahydro-cyclopenta[c]pyrrole-1-carboxamide]	190 ± 20	
CCC[C@H](NC(=O)[C@@H]1[C@H]2CCC[C@H]2CN1C(=O)[C@@H](NC(=O)[C@@H](NC(=O)OCc1ccccc1)C1CCCCC1)C(C)(C)C)C(=O)C(=O)NC1CC1 [Jun7453, Benzyl ((S)-1-cyclohexyl-2-(((S)-1-((1S,3aR,6aS)-1-(((S)-1-(cyclopropylamino)-1,2-dioxohexan-3-yl)carbamoyl)hexahydrocyclopenta[c]pyrrol-2(1H)-yl)-3,3-dimethyl-1-oxobutan-2-yl)amino)-2-oxoethyl)carbamate]	360 ± 20	EC50 (EV-D68 US/MO/14-18947; Enterovirus D, EVD68, RD, read-out: Antiviral EC50, CPE assay, EV-D68 US/MO/14-18947 in R.D. cells): 630 nM
CCC[C@@H](C#N)NC(=O)[C@@H]1[C@H]2CCC[C@H]2CN1C(=O)C(NC(=O)CC12CC3CC(CC(C3)C1)C2)C(C)(C)C (stereo partly drawn) [Jun11191, (1S,3aR,6aS)-2-((S)-2-(2-((3S,5S,7S)-adamantan-1-yl)acetamido)-3,3-dimethylbutanoyl)-N—((S)-1-cyanobutyl) octahydro-cyclopenta[c]pyrrole-1-carboxamide]		EC50 (EV-D68 US/MO/14-18947; Enterovirus D, EVD68, RD, CPE assay, EV-D68 US/MO/14-18947 in R.D. cells, read-out: Antiviral EC50): 3920 nM
CCCC(NC(=O)C1C2CCCC2CN1C(=O)C(NC(=O)CC12CC3CC(CC(O)(C3)C1)C2)C(C)(C)C)C(=O)C(=O)NC1CC1 [Jun922, (1S,3aR,6aS)—N—((S)-1-(cyclopropylamino)-1,2-dioxohexan-3-yl)-2-((S)-2-(2-((1r,3R,5R,7S)-3-hydroxyadamantan-1-yl)acetamido)-3,3-dimethylbutanoyl)octa-hydrocyclopenta[c]pyrrole-1-carboxamide]	400 ± 50	
CCC[C@H](NC(=O)[C@@H]1[C@H]2CCC[C@H]2CN1C(=O)[C@@H](NC(=O)C[C@@]12C[C@@H]3C[C@@H](C[C@@](O)(C3)C1)C2)C(C)(C)C)C(=O)C(=O)NC1CC1 [Jun922, (1S,3aR,6aS)—N—((S)-1-(cyclopropylamino)-1,2-dioxohexan-3-yl)-2-((S)-2-(2-((1r,3R,5R,7S)-3-hydroxyadamantan-1-yl)acetamido)-3,3-dimethylbutanoyl)octa-hydrocyclopenta[c]pyrrole-1-carboxamide]		EC50 (EV-D68 US/MO/14-18947; [2]): 1850 nM
COC[C@H](NC(=O)[C@@H]1[C@H]2CCC[C@H]2CN1C(=O)[C@@H](NC(=O)CC12CC3CC(CC(C3)C1)C2)C(C)(C)C)C(=O)C(=O)NC1CC1 [Jun11672, (1S,3aR,6aS)-2-((S)-2-(2-((3S,5S,7S)-adamantan-1-yl)acetamido)-3,3-dimethylbutanoyl)-N—((S)-4-(cyclopropylamino)-1-methoxy-3,4-dioxobutan-2-yl)octahydrocyclopenta[c]pyrrole-1-carboxamide]	120 ± 70	
CCCC(NC(=O)C1C2CCCC2CN1C(=O)C(NC(=O)CC1C2CC3CC(C2)CC1C3)C(C)(C)C)C(=O)C(=O)NC1CC1 [Jun1024, (1S)-2-((S)-2-(2-((1S,3S,5S,7S)-adamantan-2-yl)acetamido)-3,3-dimethylbutanoyl)-N—((S)-1-(cyclopropylamino)-1,2-dioxohexan-3-yl)octahydrocyclopenta[c]pyrrole-1-carboxamide]	120 ± 10	
CC(C)(C)[C@H](NC(=O)CC12CC3CC(CC(C3)C1)C2)C(=O)N1C[C@@H]2CCC[C@@H]2[C@H]1C(=O)N[C@@H](Cc1ccsc1)C(=O)C(=O)NC1CC1 [Jun11818]	120 ± 20	
CC(C)(C)[C@H](NC(=O)CC12CC3CC(CC(C3)C1)C2)C(=O)N1C[C@@H]2CCC[C@@H]2[C@H]1C(=O)NC1(C(=O)C(=O)NC2CC2)CCCCC1 [Jun11805, (1S,3aR,6aS)-2-((S)-2-(2-((3S,5S,7S)-adamantan-1-yl)acetamido)-3,3-dimethylbutanoyl)-N-(1-(2-(cyclopropylamino)-2-oxoacetyl)cyclohexyl)octahydrocyclopenta[c]pyrrole-1-carboxamide]	740 ± 140	
CC(C)(C)[C@H](NC(=O)CC12CC3CC(CC(C3)C1)C2)C(=O)N1C[C@@H]2CCC[C@@H]2[C@H]1C(=O)NC1(C(=O)C(=O)NC2CC2)CCC1 [Jun11806, (1S,3aR,6aS)-2-((S)-2-(2-((3S,5S,7S)-adamantan-1-yl)acetamido)-3,3-dimethylbutanoyl)-N-(1-(2-(cyclopropylamino)-2 oxoacetyl)cyclobutyl)octahydrocyclopenta[c]pyrrole-1-carboxamide]	4810 ± 810	
CCC[C@H](NC(=O)[C@@H]1[C@H]2CCC[C@H]2CN1C(=O)[C@@H](NC(=O)CC1C2CC3CC(C2)CC1C3)C(C)(C)C)C(=O)C(=O)NC1CC1 (stereo partly drawn) [Jun1024, (1S)-2-((S)-2-(2-((1S,3S,5S,7S)-adamantan-2-yl)acetamido)-3,3-dimethylbutanoyl)-N—((S)-1-(cyclopropylamino)-1,2-dioxohexan-3-yl)octahydrocyclopenta[c]pyrrole-1-carboxamide]		EC50 (EV-D68 US/MO/14-18947; [2]): 180 nM
CC(C)(C)[C@H](NC(=O)CC12CC3CC(CC(C3)C1)C2)C(=O)N1C[C@@H]2CCC[C@@H]2[C@H]1C(=O)N[C@H](C(=O)C(=O)NC1CC1)c1ccc(F)cc1 [Jun11861, (1S,3aR,6aS)-2-((S)-2-(2-((3S,5S,7S)-adamantan-1-yl)acetamido)-3,3-dimethylbutanoyl)-N—((S)-3-(cyclopropylamino)-1-(4-fluorophenyl)-2,3-dioxopropyl)octahydrocyclopenta[c]pyrrole-1-carboxamide]	350 ± 130	
